Results as given in the supplement of paper PMC10307832.

Tests used:
Experiment in all cases: relative viability (nuclei count vs DMSO), 5 days (fraction); higher = more cells survive
EKVX = system: EKVX
Summary of the method: (§1)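 Five library-drug doses in √10 steps were combined with a fixed anchor-drug dose, or a single drug was given alone, by pin tool to lung cancer cell lines in 1536-well plates the day after seeding. Nuclei were stained and counted after 5 days. Relative viability is the nuclei count in treated wells over that in vehicle wells, taken as the median of duplicate plates.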

H3255 = system: H3255
Summary of the method: as §1

HCC-15 = system: HCC-15
Summary of the method: as §1

HCC-827 = system: HCC-827
Summary of the method: as §1

LCLC-97TM1 = system: LCLC-97TM1
Summary of the method: as §1

LK-2 = system: LK-2
Summary of the method: as §1

NCI-H1355 = system: NCI-H1355
Summary of the method: as §1

NCI-H1650 = system: NCI-H1650
Summary of the method: as §1

NCI-H1734 = system: NCI-H1734
Summary of the method: as §1

NCI-H1755 = system: NCI-H1755
Summary of the method: as §1

NCI-H1975 = system: NCI-H1975
Summary of the method: as §1

NCI-H2342 = system: NCI-H2342
Summary of the method: as §1

NCI-H2405 = system: NCI-H2405
Summary of the method: as §1

NCI-H322M = system: NCI-H322M
Summary of the method: as §1

NCI-H520 = system: NCI-H520
Summary of the method: as §1

NCI-H661 = system: NCI-H661
Summary of the method: as §1

PC-14 = system: PC-14
Summary of the method: as §1

PC-3 [JPC-3] = system: PC-3 [JPC-3]
Summary of the method: as §1

RERF-LC-KJ = system: RERF-LC-KJ
Summary of the method: as §1

Structure (SMILES): O=c1cc(N2CCOCC2)oc2c(-c3cccc4c3sc3ccccc34)cccc12 + Nc1ncn([C@H]2C[C@H](O)[C@@H](CO)O2)c(=O)n1 [Decitabine] (partner 2 µM)
- relative viability (EKVX; first compound 0.01 µM): 0.355
- relative viability (EKVX; first compound 0.03162 µM): 0.321
- relative viability (EKVX; first compound 0.1 µM): 0.37
- relative viability (EKVX; first compound 0.3162 µM): 0.282
- relative viability (EKVX; first compound 1 µM): 0.336
- relative viability (H3255; first compound 0.01 µM): 0.598
- relative viability (H3255; first compound 0.03162 µM): 0.715
- relative viability (H3255; first compound 0.1 µM): 0.56
- relative viability (H3255; first compound 0.3162 µM): 0.604
- relative viability (H3255; first compound 1 µM): 0.533
- relative viability (HCC-15; first compound 0.01 µM): 0.632
- relative viability (HCC-15; first compound 0.03162 µM): 0.639
- relative viability (HCC-15; first compound 0.1 µM): 0.774
- relative viability (HCC-15; first compound 0.3162 µM): 0.59
- relative viability (HCC-15; first compound 1 µM): 0.724
- relative viability (HCC-827; first compound 0.01 µM): 0.291
- relative viability (HCC-827; first compound 0.03162 µM): 0.329
- relative viability (HCC-827; first compound 0.1 µM): 0.296
- relative viability (HCC-827; first compound 0.3162 µM): 0.314
- relative viability (HCC-827; first compound 1 µM): 0.161
- relative viability (LCLC-97TM1; first compound 0.01 µM): 0.261
- relative viability (LCLC-97TM1; first compound 0.03162 µM): 0.227
- relative viability (LCLC-97TM1; first compound 0.1 µM): 0.227
- relative viability (LCLC-97TM1; first compound 0.3162 µM): 0.252
- relative viability (LCLC-97TM1; first compound 1 µM): 0.235
- relative viability (LK-2; first compound 0.01 µM): 0.355
- relative viability (LK-2; first compound 0.03162 µM): 0.324
- relative viability (LK-2; first compound 0.1 µM): 0.338
- relative viability (LK-2; first compound 0.3162 µM): 0.278
- relative viability (LK-2; first compound 1 µM): 0.285
- relative viability (NCI-H1355; first compound 0.01 µM): 0.377
- relative viability (NCI-H1355; first compound 0.03162 µM): 0.339
- relative viability (NCI-H1355; first compound 0.1 µM): 0.409
- relative viability (NCI-H1355; first compound 0.3162 µM): 0.351
- relative viability (NCI-H1355; first compound 1 µM): 0.352
- relative viability (NCI-H1650; first compound 0.01 µM): 0.362
- relative viability (NCI-H1650; first compound 0.03162 µM): 0.384
- relative viability (NCI-H1650; first compound 0.1 µM): 0.489
- relative viability (NCI-H1650; first compound 0.3162 µM): 0.53
- relative viability (NCI-H1650; first compound 1 µM): 0.399
- relative viability (NCI-H1734; first compound 0.01 µM): 0.584
- relative viability (NCI-H1734; first compound 0.03162 µM): 0.508
- relative viability (NCI-H1734; first compound 0.1 µM): 0.536
- relative viability (NCI-H1734; first compound 0.3162 µM): 0.498
- relative viability (NCI-H1734; first compound 1 µM): 0.517
- relative viability (NCI-H1755; first compound 0.01 µM): 0.755
- relative viability (NCI-H1755; first compound 0.03162 µM): 0.74
- relative viability (NCI-H1755; first compound 0.1 µM): 0.711
- relative viability (NCI-H1755; first compound 0.3162 µM): 0.696
- relative viability (NCI-H1755; first compound 1 µM): 0.719
- relative viability (NCI-H1975; first compound 0.01 µM): 0.438
- relative viability (NCI-H1975; first compound 0.03162 µM): 0.4
- relative viability (NCI-H1975; first compound 0.1 µM): 0.394
- relative viability (NCI-H1975; first compound 0.3162 µM): 0.371
- relative viability (NCI-H1975; first compound 1 µM): 0.353
- relative viability (NCI-H2342; first compound 0.01 µM): 0.631
- relative viability (NCI-H2342; first compound 0.03162 µM): 0.652
- relative viability (NCI-H2342; first compound 0.1 µM): 0.774
- relative viability (NCI-H2342; first compound 0.3162 µM): 0.726
- relative viability (NCI-H2342; first compound 1 µM): 0.672
- relative viability (NCI-H2405; first compound 0.01 µM): 0.82
- relative viability (NCI-H2405; first compound 0.03162 µM): 0.715
- relative viability (NCI-H2405; first compound 0.1 µM): 0.812
- relative viability (NCI-H2405; first compound 0.3162 µM): 0.76
- relative viability (NCI-H2405; first compound 1 µM): 0.788
- relative viability (NCI-H322M; first compound 0.01 µM): 0.683
- relative viability (NCI-H322M; first compound 0.03162 µM): 0.678
- relative viability (NCI-H322M; first compound 0.3162 µM): 0.748
- relative viability (NCI-H322M; first compound 1 µM): 0.751
- relative viability (NCI-H520; first compound 0.01 µM): 0.59
- relative viability (NCI-H520; first compound 0.03162 µM): 0.565
- relative viability (NCI-H520; first compound 0.1 µM): 0.529
- relative viability (NCI-H520; first compound 0.3162 µM): 0.557
- relative viability (NCI-H520; first compound 1 µM): 0.525
- relative viability (NCI-H661; first compound 0.01 µM): 0.563
- relative viability (NCI-H661; first compound 0.03162 µM): 0.53
- relative viability (NCI-H661; first compound 0.1 µM): 0.599
- relative viability (NCI-H661; first compound 0.3162 µM): 0.535
- relative viability (NCI-H661; first compound 1 µM): 0.587
- relative viability (PC-14; first compound 0.01 µM): 0.274
- relative viability (PC-14; first compound 0.03162 µM): 0.272
- relative viability (PC-14; first compound 0.1 µM): 0.191
- relative viability (PC-14; first compound 0.3162 µM): 0.267
- relative viability (PC-14; first compound 1 µM): 0.267
- relative viability (PC-3 [JPC-3]; first compound 0.01 µM): 0.809
- relative viability (PC-3 [JPC-3]; first compound 0.03162 µM): 0.859
- relative viability (PC-3 [JPC-3]; first compound 0.1 µM): 0.874
- relative viability (PC-3 [JPC-3]; first compound 0.3162 µM): 0.814
- relative viability (PC-3 [JPC-3]; first compound 1 µM): 0.811
- relative viability (RERF-LC-KJ; first compound 0.01 µM): 0.746
- relative viability (RERF-LC-KJ; first compound 0.03162 µM): 0.697
- relative viability (RERF-LC-KJ; first compound 0.1 µM): 0.778
- relative viability (RERF-LC-KJ; first compound 0.3162 µM): 0.751
- relative viability (RERF-LC-KJ; first compound 1 µM): 0.712
